Laboratory results: the NIST ThermoML archive (doi:10.1021/je400310h)

Assay: mn = molality of the nth substance listed, in mol/kg
Details: 101 kPa, Liquid, Vibrating tube method

CCC[n+]1ccn(CCO)c1.[Cl-] [1-(2-hydroxylethyl)-3-propylimidazolium chloride] + O
mass density [kg/m3]
Details | 293.15 K | 298.15 K | 303.15 K
m1 = 0.01 | 998.4 | 997.35 | 995.88
m1 = 0.0505 | 999.68 | 998.47 | 997.08
m1 = 0.102 | 1001.01 | 999.89 | 998.4
m1 = 0.208 | 1004.05 | 1002.76 | 1001.15
m1 = 0.5535 | 1012.98 | 1011.56 | 1009.99
m1 = 1.175 | 1027.62 | 1025.68 | 1023.8
m1 = 2.103 | 1046.02 | 1043.76 | 1041.7
m1 = 3.23 | 1063.98 | 1061.54 | 1058.92
m1 = 4.772 | 1082.55 | 1079.86 | 1077.08
m1 = 5.992 | 1093.61 | 1090.78 | 1087.9
m1 = 7.003 | 1101.22 | 1098.33 | 1095.39

CCC[n+]1ccn(CC(=O)O)c1.[Cl-] [1-(carboxymethyl)-3-propylimidazolium chloride] + O
mass density [kg/m3]
Details | m1 = 0.0302 | m1 = 0.0505 | m1 = 0.1021 | m1 = 0.2084 | m1 = 0.5569 | m1 = 1.257 | m1 = 2.166 | m1 = 3.386 | m1 = 5.114 | m1 = 7.768
293.15 K | 999.68 | 1000.6 | 1002.96 | 1007.61 | 1021.7 | 1046.14 | 1071.45 | 1097.44 | 1123.69 | 1150.29
298.15 K | 998.52 | 999.44 | 1001.71 | 1006.08 | 1019.83 | 1044.05 | 1069.11 | 1094.76 | 1120.74 | 1147.15
303.15 K | 997.01 | 998 | 1000.1 | 1004.64 | 1018.22 | 1041.75 | 1066.6 | 1091.97 | 1117.73 | 1143.97

C[n+]1ccn(CC(=O)O)c1.[Cl-] [1-carboxymethyl-3-methylimidazolium chloride] + O
mass density [kg/m3]
Details | m1 = 0.0302 | m1 = 0.0505 | m1 = 0.1018 | m1 = 0.2072 | m1 = 0.5443 | m1 = 1.214 | m1 = 2.041 | m1 = 3.094 | m1 = 4.466 | m1 = 6.375
293.15 K | 999.87 | 1000.94 | 1003.6 | 1008.87 | 1024.61 | 1052.15 | 1080.57 | 1110.21 | 1140.75 | 1173
298.15 K | 998.71 | 999.76 | 1002.36 | 1007.5 | 1022.95 | 1050.32 | 1078.44 | 1107.83 | 1138.14 | 1170.21
303.15 K | 997.12 | 998.24 | 1000.9 | 1006.06 | 1021.26 | 1048.33 | 1076.13 | 1105.34 | 1135.4 | 1167.36
